Toxic doses and inconclusive results are not listed. No stated cut-off is given here; in the data, active means T/C of 150% or more; inactive means T/C below 125%. Square brackets hold non-standard residues; d marks the D form. Peptide text beside a SMILES is read from it. * marks the point of attachment. ξ: configuration not given here. Cbz = O=C(OCc1ccccc1)*; ξI = CCC(C)C(N)C(=O)O
Tested on: L1210 leukemia ip in BDF1 mice, survival T/C
Assay: NCI In Vivo Anticancer Drug Screen. Data for tumor model L1210 Leukemia (intraperitoneal) in B6D2F1 (BDF1) mice
Conditions: endpoint: mean survival time, higher = longer survival
Outline: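 Ratio derived from survival: compound-dosed mice over vehicle-dosed mice, all bearing a transplantable tumor.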

[1] = dose: 100.0 mg/kg/injection, schedule: Q01DX001 (ip), vehicle: saline
[2] = dose: 200.0 mg/kg/injection, schedule: Q01DX001 (ip), vehicle: saline
[3] = dose: 400.0 mg/kg/injection, schedule: Q01DX001 (ip), vehicle: saline
[4] = dose: 100.0 mg/kg/injection, schedule: Q04DX002 (ip), vehicle: Klucel (hydroxypropylcellulose) (HPC)
[5] = dose: 200.0 mg/kg/injection, schedule: Q04DX002 (ip), vehicle: Klucel (hydroxypropylcellulose) (HPC)
[6] = dose: 400.0 mg/kg/injection, schedule: Q04DX002 (ip), vehicle: Klucel (hydroxypropylcellulose) (HPC)
[7] = dose: 50.0 mg/kg/injection, schedule: Q01DX001 (ip), vehicle: saline
[8] = dose: 75.0 mg/kg/injection, schedule: Q01DX001 (ip), vehicle: saline
[9] = dose: 150.0 mg/kg/injection, schedule: Q01DX001 (ip), vehicle: saline
[10] = dose: 100.0 mg/kg/injection, schedule: Q01DX001 (ip), vehicle: saline with Tween-80
[11] = dose: 200.0 mg/kg/injection, schedule: Q01DX001 (ip), vehicle: saline with Tween-80
[12] = dose: 200.0 mg/kg/injection, schedule: Q01DX009 (ip), vehicle: saline with Tween-80
[13] = dose: 400.0 mg/kg/injection, schedule: Q01DX009 (ip), vehicle: saline with Tween-80
[14] = dose: 100.0 mg/kg/injection, schedule: Q04DX003 (ip), vehicle: saline with Tween-80
[15] = dose: 200.0 mg/kg/injection, schedule: Q04DX003 (ip), vehicle: saline with Tween-80
[16] = dose: 400.0 mg/kg/injection, schedule: Q04DX003 (ip), vehicle: saline with Tween-80
[17] = dose: 100.0 mg/kg/injection, schedule: Q01DX009 (ip), vehicle: saline with Tween-80

Measured: T/C

O=[N+]([O-])c1cc2c(cc1/C=N/N=C1c3ccccc3-c3ccccc31)OCO2
inactive: dose: 75.0 mg/kg/injection, schedule: Q01DX001 (ip), vehicle: other 94 % of control | dose: 150.0 mg/kg/injection, schedule: Q01DX001 (ip), vehicle: other 92 % of control

O=[N+]([O-])c1ccc(F)c(CNc2ncnc3c2ncn3C2CCCCO2)c1 (stereo not given)
inactive: dose: 100.0 mg/kg/injection, schedule: Q01DX009 (ip), vehicle: Klucel (hydroxypropylcellulose) (HPC) 100 % of control | dose: 200.0 mg/kg/injection, schedule: Q01DX009 (ip), vehicle: Klucel (hydroxypropylcellulose) (HPC) 106 % of control | dose: 400.0 mg/kg/injection, schedule: Q01DX009 (ip), vehicle: Klucel (hydroxypropylcellulose) (HPC) 100 % of control

Cc1cccn2ncnc12
inactive: dose: 50.0 mg/kg/injection, schedule: Q01DX001 (ip), vehicle: alcohol 106 % of control | dose: 100.0 mg/kg/injection, schedule: Q01DX001 (ip), vehicle: alcohol 107 % of control | dose: 200.0 mg/kg/injection, schedule: Q01DX001 (ip), vehicle: alcohol 102 % of control

O=C(O)c1cc(Br)cc(Br)c1O
inactive: [1] 123 % of control | dose: 100.0 mg/kg/injection, schedule: Q04DX002 (ip), vehicle: saline with Tween-80 91 % of control | [2] 105 % of control | dose: 200.0 mg/kg/injection, schedule: Q04DX002 (ip), vehicle: saline with Tween-80 100 % of control | [3] 109 % of control | dose: 400.0 mg/kg/injection, schedule: Q04DX002 (ip), vehicle: saline with Tween-80 88 % of control

Cc1ccc(C)c(NC(=O)C2CCCCC2C(=O)O)c1 (stereo not given)
inactive: [4] 118 % of control | [5] 96 % of control | [6] 103 % of control

Cc1ccc(/C=C/S(=O)(=O)c2ccccc2)cc1
inactive: dose: 100.0 mg/kg/injection, schedule: Q01DX001 (ip), vehicle: acetone 109 % of control | dose: 100.0 mg/kg/injection, schedule: Q01DX009 (ip), vehicle: acetone 87 % of control | dose: 100.0 mg/kg/injection, schedule: Q04DX003 (ip), vehicle: acetone 97 % of control | dose: 200.0 mg/kg/injection, schedule: Q01DX001 (ip), vehicle: acetone 98 % of control | dose: 200.0 mg/kg/injection, schedule: Q01DX009 (ip), vehicle: acetone 87 % of control | dose: 200.0 mg/kg/injection, schedule: Q04DX003 (ip), vehicle: acetone 103 % of control | dose: 400.0 mg/kg/injection, schedule: Q01DX001 (ip), vehicle: acetone 98 % of control | dose: 400.0 mg/kg/injection, schedule: Q01DX009 (ip), vehicle: acetone 88 % of control | dose: 400.0 mg/kg/injection, schedule: Q04DX003 (ip), vehicle: acetone 105 % of control

O=C1NC(=O)N2CCSC2(Cc2ccccc2)N1 (stereo not given)
inactive: [7] 108 % of control | [1] 96 % of control | [2] 96 % of control | [3] 100 % of control

O=C(CC(=O)c1ccccc1)c1ccccc1.O=C(CC(=O)c1ccccc1)c1ccccc1.O=C(CC(=O)c1ccccc1)c1ccccc1.[Cr]
inactive: [4] 93 % of control | [5] 101 % of control | [6] 104 % of control

CC(C)(C)N1CCC1CO (stereo not given)
inactive: [8] 106 % of control | [9] 97 % of control

CCOC(=O)C1=C(C)C(C)C(=O)NC1=O (stereo not given)
inactive: [10] 100 % of control | [11] 101 % of control | [12] 110 % of control | dose: 400.0 mg/kg/injection, schedule: Q01DX001 (ip), vehicle: saline with Tween-80 96 % of control | [13] 96 % of control

CCCCCCCCCCCCCC[N+]1(C)CCS(=O)CC1 (stereo not given)
inactive: dose: 25.0 mg/kg/injection, schedule: Q01DX001 (ip), vehicle: saline 102 % of control | [7] 107 % of control | [1] 102 % of control

CCC(C)C(NC(=O)CNC(=O)OCc1ccccc1)C(=O)O (stereo not drawn) (Cbz-Gly-[ξI]-OH)
inactive: [14] 107 % of control | [15] 97 % of control | [16] 98 % of control

CCC(CCl)NC(=O)N(N=O)C(CC)CCl (stereo not given)
inactive: dose: 16.0 mg/kg/injection, schedule: Q01DX001 (ip), vehicle: carboxymethylcellulose (CMC) 96 % of control | dose: 31.0 mg/kg/injection, schedule: Q01DX001 (ip), vehicle: carboxymethylcellulose (CMC) 102 % of control | dose: 62.0 mg/kg/injection, schedule: Q01DX001 (ip), vehicle: carboxymethylcellulose (CMC) 95 % of control | dose: 125.0 mg/kg/injection, schedule: Q01DX001 (ip), vehicle: carboxymethylcellulose (CMC) 101 % of control | dose: 250.0 mg/kg/injection, schedule: Q01DX001 (ip), vehicle: carboxymethylcellulose (CMC) 91 % of control | dose: 375.0 mg/kg/injection, schedule: Q01DX001 (ip), vehicle: carboxymethylcellulose (CMC) 91 % of control | dose: 500.0 mg/kg/injection, schedule: Q01DX001 (ip), vehicle: carboxymethylcellulose (CMC) 101 % of control | dose: 750.0 mg/kg/injection, schedule: Q01DX001 (ip), vehicle: carboxymethylcellulose (CMC) 91 % of control | dose: 1000.0 mg/kg/injection, schedule: Q01DX001 (ip), vehicle: carboxymethylcellulose (CMC) 93 % of control | dose: 1500.0 mg/kg/injection, schedule: Q01DX001 (ip), vehicle: carboxymethylcellulose (CMC) 98 % of control

CC(=O)NNC(=O)Nc1cccc(C(F)(F)F)c1
inactive: dose: 50.0 mg/kg/injection, schedule: Q01DX009 (ip), vehicle: saline with Tween-80 94 % of control | [17] 91 % of control

CCOC=NC1=C(Cl)C(=O)C(N=COCC)=C(Cl)C1=O
inactive: dose: 100.0 mg/kg/injection, schedule: Q04DX003 (ip), vehicle: Klucel (hydroxypropylcellulose) (HPC) 92 % of control | dose: 200.0 mg/kg/injection, schedule: Q04DX003 (ip), vehicle: Klucel (hydroxypropylcellulose) (HPC) 94 % of control

CCOC(=O)CSC
inactive: [17] 99 % of control | [14] 101 % of control | [12] 94 % of control | [15] 106 % of control | [13] 100 % of control | [16] 98 % of control

CCCCCCCCCC(=S)N1CCN(c2ccccc2)CC1
inactive: [1] 95 % of control | [2] 93 % of control | [3] 90 % of control

c1ccc([B-](c2ccccc2)([C+]2CCCCC2)N2CCCCC2)cc1
inactive: dose: 75.0 mg/kg/injection, schedule: Q01DX001 (ip), vehicle: carboxymethylcellulose (CMC) 104 % of control | dose: 150.0 mg/kg/injection, schedule: Q01DX001 (ip), vehicle: carboxymethylcellulose (CMC) 100 % of control

O=C1CCCN1
inactive: dose: 100.0 mg/kg/injection, schedule: Q04DX003 (ip), vehicle: saline 92 % of control | dose: 200.0 mg/kg/injection, schedule: Q04DX003 (ip), vehicle: saline 97 % of control | dose: 400.0 mg/kg/injection, schedule: Q04DX003 (ip), vehicle: saline 92 % of control

O=C(O)CCCCCN1C(=O)c2cccc([N+](=O)[O-])c2C1=O
inactive: [10] 110 % of control | [11] 109 % of control

O=P1(Nc2ccccc2)OCCCN1Cc1ccc(Cl)c(Cl)c1 (stereo not given)
inactive: [7] 96 % of control | [1] 102 % of control | [2] 90 % of control | [3] 102 % of control

CC(C)=CCNc1nc(=O)[nH]c2nc[nH]c12
inactive: [8] 92 % of control | [9] 88 % of control | dose: 300.0 mg/kg/injection, schedule: Q01DX001 (ip), vehicle: saline 88 % of control

CC(CC(=O)c1ccc(F)cc1)N1CCCCC1 (stereo not given)
inactive: dose: 100.0 mg/kg/injection, schedule: Q01DX001 (ip), vehicle: carboxymethylcellulose (CMC) 95 % of control | dose: 200.0 mg/kg/injection, schedule: Q01DX001 (ip), vehicle: carboxymethylcellulose (CMC) 98 % of control

CC(=O)N(C)N=O
inactive: dose: 10.0 mg/kg/injection, schedule: Q01DX001 (ip), vehicle: saline 115 % of control | dose: 20.0 mg/kg/injection, schedule: Q01DX001 (ip), vehicle: saline 115 % of control | dose: 30.0 mg/kg/injection, schedule: Q01DX001 (ip), vehicle: saline 115 % of control | dose: 40.0 mg/kg/injection, schedule: Q01DX001 (ip), vehicle: saline 114 % of control

O=C(c1cccc(C(=O)n2c3c(c4ccccc42)CCCC3)c1)n1c2c(c3ccccc31)CCCC2
inactive: [17] 90 % of control | [14] 95 % of control | [12] 90 % of control | [15] 98 % of control | [13] 94 % of control | [16] 88 % of control

Source: PubChem BioAssay AID248 (DTP/NCI, 2004)
